Results reported in ChEMBL document CHEMBL2073835, “Apical uptake of organic cations by human intestinal Caco-2 cells: putative involvement of ASF transporters” (Naunyn Schmiedebergs Arch Pharmacol, 2001).

Target: T1, Solute carrier family 22 member 3 (Homo sapiens, UniProt O75751)
T1 sequence (O75751 whole entry): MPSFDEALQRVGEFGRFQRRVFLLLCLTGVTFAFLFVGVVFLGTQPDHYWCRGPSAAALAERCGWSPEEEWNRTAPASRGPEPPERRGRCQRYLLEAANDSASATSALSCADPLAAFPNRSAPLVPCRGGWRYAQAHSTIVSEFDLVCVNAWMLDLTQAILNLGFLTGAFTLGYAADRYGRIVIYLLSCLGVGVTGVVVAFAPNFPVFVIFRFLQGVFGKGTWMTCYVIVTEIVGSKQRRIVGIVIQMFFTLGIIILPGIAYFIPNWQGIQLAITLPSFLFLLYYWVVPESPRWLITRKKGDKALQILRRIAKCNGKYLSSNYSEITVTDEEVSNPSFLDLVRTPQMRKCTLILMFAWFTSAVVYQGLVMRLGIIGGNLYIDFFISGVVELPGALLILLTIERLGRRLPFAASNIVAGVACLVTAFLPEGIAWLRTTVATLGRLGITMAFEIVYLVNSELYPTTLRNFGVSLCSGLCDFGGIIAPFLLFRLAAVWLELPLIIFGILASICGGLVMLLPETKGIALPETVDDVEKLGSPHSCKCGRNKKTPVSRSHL
Assay: TP_TRANSPORTER: inhibition of MPP+ uptake (MPP+: 0.2 uM) in OCT3-expressing HEK293 cells
Format: functional, cell-based

| IC50 [µM] | Compound |
| --- | --- |
| 79.3 | Clc1cccc(Cl)c1N=C1NCCN1 [CLONIDINE] |
| 1.76 | CC[n+]1c(CC2C=C(C)N=C(c3ccccc3)N2C)ccc2ccccc21 (stereo not drawn) [Cyanine-863] |
| 10300 | CC[N+](CC)(CC)CC [TETRYLAMMONIUM] |
